Test results from ChEMBL document CHEMBL3352178, “Antidepressant- and anxiolytic-like activity of 7-phenylpiperazinylalkyl-1,3-dimethyl-purine-2,6-dione derivatives with diversified 5-HT₁A receptor functional profile” (Bioorg Med Chem, 2015).
The source made the active and inactive calls. The calls are words filed in the database; no cut-off is given here.

Columns and labels:
[1] = test system: Mus musculus; assay: Inhibition of (+/-)-DOI-induced head twitch response in mouse dosed intraperitoneally 60 mins before (+/-)-DOI injection; type: functional
[2] = test system: Mus musculus; assay: Anxiolytic-like activity in mouse assessed as increase in number of punished crossings at 20 mg/kg, ip dosed 60 mins before test by four plate test; type: functional; settings: route intraperitoneal
[3] = test system: Mus musculus; assay: Effect on spontaneous locomotor activity in mouse at 20 mg/kg, ip; type: ADME, organism-based; design: dose 20 mg/kg, route intraperitoneal; settings: in vivo
[4] = test system: Mus musculus; assay: Anxiolytic-like activity in mouse assessed as increase in number of punished crossings at 20 mg/kg, ip dosed 60 mins before test in presence of 0.3 mg/kg, sc 5HT1A receptor antagonist WAY 100635 by four plate test; type: functional, organism-based
[5] = test system: Mus musculus; assay: Antidepressant-like activity in mouse assessed as reduction in immobility time at 5 mg/kg, ip dosed 60 mins before test by forced swim test; type: functional; design: scale not given: the % may be the effect or the level left; settings: route intraperitoneal
[6] = test system: Mus musculus; assay: Antidepressant-like activity in mouse assessed as reduction in immobility time at 10 mg/kg, ip dosed 60 mins before test by forced swim test; type: functional; design: scale not given: the % may be the effect or the level left; settings: route intraperitoneal
[7] = test system: Mus musculus; assay: Effect on spontaneous locomotor activity in ip dosed mouse during 2 to 6 mins; type: ADME, organism-based; settings: in vivo
[8] = test system: Mus musculus; assay: Antidepressant-like activity in mouse assessed as reduction in immobility time at 5 mg/kg, ip dosed 60 mins before test in presence of 0.3 mg/kg, sc 5HT1A receptor antagonist WAY 100635 by forced swim test; type: functional, organism-based
[9] = target: T1, 5-hydroxytryptamine receptor 1A (Rattus norvegicus, UniProt P19327); assay: Displacement of [3H]-8-OH-DPAT from 5-HT1AR in rat hippocampus; type: tissue-based
T1 sequence (P19327 whole entry): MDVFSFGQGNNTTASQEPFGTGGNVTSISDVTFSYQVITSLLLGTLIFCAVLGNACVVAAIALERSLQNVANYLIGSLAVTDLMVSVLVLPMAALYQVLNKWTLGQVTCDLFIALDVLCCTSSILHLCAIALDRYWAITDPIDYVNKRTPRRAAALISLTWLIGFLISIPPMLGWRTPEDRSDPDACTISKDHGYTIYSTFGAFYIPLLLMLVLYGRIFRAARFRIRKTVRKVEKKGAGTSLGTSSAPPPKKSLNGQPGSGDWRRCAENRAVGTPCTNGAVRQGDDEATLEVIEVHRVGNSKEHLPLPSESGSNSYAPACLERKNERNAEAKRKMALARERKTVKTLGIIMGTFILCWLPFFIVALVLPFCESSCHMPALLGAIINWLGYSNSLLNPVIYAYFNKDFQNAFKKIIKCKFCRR

[10] = target: 5-hydroxytryptamine receptor 2A (Rattus norvegicus, UniProt P14842); assay: Displacement of [3H]-ketanserin from 5-HT2AR in rat cortex
5-hydroxytryptamine receptor 2A, sequence (P14842 whole entry): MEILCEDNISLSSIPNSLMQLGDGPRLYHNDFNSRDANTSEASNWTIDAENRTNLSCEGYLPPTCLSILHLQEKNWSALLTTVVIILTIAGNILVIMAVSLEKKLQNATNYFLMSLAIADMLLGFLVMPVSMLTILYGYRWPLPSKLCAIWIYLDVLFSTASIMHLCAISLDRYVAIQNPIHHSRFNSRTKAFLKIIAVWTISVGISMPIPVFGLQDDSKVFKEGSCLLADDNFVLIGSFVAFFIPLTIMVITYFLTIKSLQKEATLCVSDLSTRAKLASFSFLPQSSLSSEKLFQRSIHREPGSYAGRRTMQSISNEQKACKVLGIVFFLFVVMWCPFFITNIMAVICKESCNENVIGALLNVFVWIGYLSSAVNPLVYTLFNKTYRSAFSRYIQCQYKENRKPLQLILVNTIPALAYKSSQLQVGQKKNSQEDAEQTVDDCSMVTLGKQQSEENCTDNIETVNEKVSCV

[11] = target: 5-hydroxytryptamine receptor 6 (Homo sapiens, UniProt P50406); assay: Displacement of [3H]LSD from human cloned 5-HT6R expressed in HEK293 cells; type: cell-based
5-hydroxytryptamine receptor 6, sequence (P50406 whole entry): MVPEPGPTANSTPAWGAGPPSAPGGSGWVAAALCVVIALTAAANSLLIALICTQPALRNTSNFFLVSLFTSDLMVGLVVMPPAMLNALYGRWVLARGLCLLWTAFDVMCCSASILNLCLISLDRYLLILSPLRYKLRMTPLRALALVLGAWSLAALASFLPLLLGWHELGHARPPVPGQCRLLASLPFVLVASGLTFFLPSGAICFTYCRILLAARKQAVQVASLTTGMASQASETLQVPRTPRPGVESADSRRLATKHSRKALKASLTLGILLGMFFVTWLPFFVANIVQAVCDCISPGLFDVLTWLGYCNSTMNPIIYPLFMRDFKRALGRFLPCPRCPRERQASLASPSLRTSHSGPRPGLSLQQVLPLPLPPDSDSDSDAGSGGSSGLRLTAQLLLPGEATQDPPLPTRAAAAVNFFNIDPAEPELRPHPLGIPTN

[12] = target: 5-hydroxytryptamine receptor 7 (Homo sapiens, UniProt P34969); assay: Displacement of [3H]]-5-CT from human cloned 5-HT7R expressed in HEK293 cells; type: cell-based
5-hydroxytryptamine receptor 7, sequence (P34969 whole entry): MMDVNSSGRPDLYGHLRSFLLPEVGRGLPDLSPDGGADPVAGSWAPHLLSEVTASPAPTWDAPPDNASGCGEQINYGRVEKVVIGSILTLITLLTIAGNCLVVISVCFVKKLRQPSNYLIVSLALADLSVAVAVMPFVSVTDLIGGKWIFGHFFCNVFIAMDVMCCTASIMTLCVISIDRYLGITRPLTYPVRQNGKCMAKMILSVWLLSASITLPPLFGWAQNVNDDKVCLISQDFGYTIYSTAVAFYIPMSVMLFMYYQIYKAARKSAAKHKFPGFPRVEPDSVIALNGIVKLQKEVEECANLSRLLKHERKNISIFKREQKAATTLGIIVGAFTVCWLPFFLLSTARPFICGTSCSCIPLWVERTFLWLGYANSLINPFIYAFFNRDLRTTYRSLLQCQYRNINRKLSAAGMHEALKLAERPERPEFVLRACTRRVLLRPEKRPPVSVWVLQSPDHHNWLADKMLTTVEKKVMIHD

[13] = target: D(2) dopamine receptor (Rattus norvegicus, UniProt P61169); assay: Displacement of [3H]-spiperone from dopamine D2 receptor in rat striatum
D(2) dopamine receptor, sequence (P61169 whole entry): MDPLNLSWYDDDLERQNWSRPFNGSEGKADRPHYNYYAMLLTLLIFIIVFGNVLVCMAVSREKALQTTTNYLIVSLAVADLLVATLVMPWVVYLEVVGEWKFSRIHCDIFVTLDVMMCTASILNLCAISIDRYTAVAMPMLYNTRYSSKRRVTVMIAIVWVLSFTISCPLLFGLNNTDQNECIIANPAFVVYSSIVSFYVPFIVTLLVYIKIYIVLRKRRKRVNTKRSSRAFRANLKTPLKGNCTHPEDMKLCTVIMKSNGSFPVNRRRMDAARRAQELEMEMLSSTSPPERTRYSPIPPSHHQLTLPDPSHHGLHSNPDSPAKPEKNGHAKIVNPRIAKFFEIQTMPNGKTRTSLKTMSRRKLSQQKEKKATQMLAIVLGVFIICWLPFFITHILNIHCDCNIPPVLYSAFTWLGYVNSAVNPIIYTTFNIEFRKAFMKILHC

[14] = test system: Mus musculus; assay: Induction of hypothermia in mouse assessed as change in body temperature at 2.5 mg/kg, ip administered 30 mins before test and measured 30 mins post dose; type: functional, organism-based; design: dose 2.5 mg/kg
[15] = test system: Mus musculus; assay: Induction of hypothermia in mouse assessed as change in body temperature at 5 mg/kg, ip administered 30 mins before test and measured 30 mins post dose; type: functional, organism-based; design: dose 5 mg/kg
[16] = test system: Mus musculus; assay: Induction of hypothermia in mouse assessed as change in body temperature at 10 mg/kg, ip administered 30 mins before test and measured 30 mins post dose; type: functional, organism-based; design: dose 10 mg/kg
[17] = test system: Mus musculus; assay: Induction of hypothermia in mouse assessed as change in body temperature at 2.5 mg/kg, ip administered 30 mins before test and measured 60 mins post dose; type: functional, organism-based; design: dose 2.5 mg/kg
[18] = test system: Mus musculus; assay: Induction of hypothermia in mouse assessed as change in body temperature at 5 mg/kg, ip administered 30 mins before test and measured 60 mins post dose; type: functional, organism-based; design: dose 5 mg/kg
[19] = test system: Mus musculus; assay: Induction of hypothermia in mouse assessed as change in body temperature at 10 mg/kg, ip administered 30 mins before test and measured 60 mins post dose; type: functional, organism-based; design: dose 10 mg/kg
[20] = test system: Mus musculus; assay: Induction of hypothermia in mouse assessed as change in body temperature at 2.5 mg/kg, ip administered 30 mins before test and measured 90 mins post dose; type: functional, organism-based; design: dose 2.5 mg/kg
[21] = test system: Mus musculus; assay: Induction of hypothermia in mouse assessed as change in body temperature at 5 mg/kg, ip administered 30 mins before test and measured 90 mins post dose; type: functional, organism-based; design: dose 5 mg/kg
[22] = test system: Mus musculus; assay: Induction of hypothermia in mouse assessed as change in body temperature at 10 mg/kg, ip administered 30 mins before test and measured 90 mins post dose; type: functional, organism-based; design: dose 10 mg/kg
[23] = test system: Mus musculus; assay: Induction of hypothermia in mouse assessed as change in body temperature at 2.5 mg/kg, ip administered 30 mins before test and measured 120 mins post dose; type: functional, organism-based; design: dose 2.5 mg/kg
[24] = test system: Mus musculus; assay: Induction of hypothermia in mouse assessed as change in body temperature at 5 mg/kg, ip administered 30 mins before test and measured 120 mins post dose; type: functional, organism-based; design: dose 5 mg/kg
[25] = test system: Mus musculus; assay: Induction of hypothermia in mouse assessed as change in body temperature at 10 mg/kg, ip administered 30 mins before test and measured 120 mins post dose; type: functional, organism-based; design: dose 10 mg/kg
[26] = test system: Mus musculus; assay: Induction of hypothermia in mouse assessed as change in body temperature at 5 mg/kg, ip administered 30 mins before test and measured 30 mins post dose in presence of 0.3 mg/kg, sc 5HT1A receptor antagonist WAY 100635; type: functional, organism-based
[27] = test system: Mus musculus; assay: Induction of hypothermia in mouse assessed as change in body temperature at 5 mg/kg, ip administered 30 mins before test and measured 60 mins post dose in presence of 0.3 mg/kg, sc 5HT1A receptor antagonist WAY 100635; type: functional, organism-based
[28] = test system: Mus musculus; assay: Induction of hypothermia in mouse assessed as change in body temperature at 2.5 mg/kg, ip administered 30 mins before test and measured 30 mins post dose in presence of 0.3 mg/kg, sc 5HT1A receptor antagonist WAY 100635; type: functional, organism-based
[29] = test system: Mus musculus; assay: Induction of hypothermia in mouse assessed as change in body temperature at 2.5 mg/kg, ip administered 30 mins before test and measured 60 mins post dose in presence of 0.3 mg/kg, sc 5HT1A receptor antagonist WAY 100635; type: functional, organism-based
[30] = test system: Rattus norvegicus; assay: Induction of lower lip retraction in rat assessed as lower lip retraction scores at 0.5 mg/kg, ip dosed 15 mins before test; type: functional; settings: route intraperitoneal
[31] = test system: Rattus norvegicus; assay: Induction of lower lip retraction in rat assessed as lower lip retraction scores at 1 mg/kg, ip dosed 15 mins before test; type: functional; settings: route intraperitoneal
[32] = test system: Rattus norvegicus; assay: Induction of lower lip retraction in rat assessed as lower lip retraction scores at 1 mg/kg, ip dosed 45 mins after 0.3 mg/kg, sc 5HT1A receptor antagonist WAY 100635; type: functional
[33] = test system: Mus musculus; assay: Inhibition of (+/-)-DOI-induced head twitch response in mouse assessed as head twitches per 20 mins at 2.5 mg/kg, ip dosed 60 mins before (+/-)-DOI injection (reference value: 21.6 +/- 3.4/20 mins); type: functional; settings: route intraperitoneal
[34] = test system: Mus musculus; assay: Inhibition of (+/-)-DOI-induced head twitch response in mouse assessed as head twitches per 20 mins at 5 mg/kg, ip dosed 60 mins before (+/-)-DOI injection (reference value: 21.6 +/- 3.4/20 mins); type: functional; settings: route intraperitoneal
[35] = test system: Mus musculus; assay: Inhibition of (+/-)-DOI-induced head twitch response in mouse assessed as head twitches per 20 mins at 10 mg/kg, ip dosed 60 mins before (+/-)-DOI injection (reference value: 21.6 +/- 3.4/20 mins); type: functional; settings: route intraperitoneal
[36] = test system: Mus musculus; assay: Inhibition of (+/-)-DOI-induced head twitch response in mouse assessed as head twitches per 20 mins at 20 mg/kg, ip dosed 60 mins before (+/-)-DOI injection (reference value: 21.6 +/- 3.4/20 mins); type: functional; settings: route intraperitoneal

Cl.Cn1c(=O)c2c(ncn2CCCCN2CCN(c3cccc(Cl)c3)CC2)n(C)c1=O
inhibition [1]: Dose-dependent effect | ED50 ([1]; ip, read-out: ID50 (the source's name)): 5.09 mg/kg | Activity [2]: 57% | Activity [3]: Non-toxic | Activity [4]: inactive | Activity [5]: 37% | Activity [6]: 30% | Activity [7]: Non-toxic | Activity [8]: inactive | Ki [9]: 1 nM | Ki [10]: 102 nM | Ki [11]: 5.15 µM | Ki [12]: 479 nM | Ki [13]: 195 nM | deltaT [14]: -1.8 °C | deltaT [15]: -2.1 °C | deltaT [16]: -2 °C | deltaT [17]: -0.8 °C | deltaT [18]: -1.1 °C | deltaT [19]: -1.7 °C | deltaT [20]: -0.1 °C | deltaT [21]: -0.6 °C | deltaT [22]: -1.3 °C | deltaT [23]: 0 °C | deltaT [24]: -0.2 °C | deltaT [25]: 0.8 °C | deltaT [26]: -1.5 °C | deltaT [27]: -0.6 °C | deltaT [28]: -0.8 °C | deltaT [29]: -0.2 °C | Activity [30]: 0.3 | Activity [31]: 1.5 | Activity [32]: 0.1 | Activity [33]: 11 | Activity [34]: 7.7 | Activity [35]: 3.8 | Activity [36]: 3.2
